Laboratory results from patent US7759331B2, “Pyridine-containing macroheterococylic compounds as kinase inhibitors” (Janssen Pharmaceutica NV, priority 2006, dated 2010).

How the values were obtained:
Assay in all cases: Protein kinase selectivity panel
Type in all cases: biochemical
Settings in all cases: 1.0 μM compound, 10 μM ATP
[1] = target: T1, MKK7β(h) (Homo sapiens, UniProt O14733)
T1 sequence (O14733 1-419): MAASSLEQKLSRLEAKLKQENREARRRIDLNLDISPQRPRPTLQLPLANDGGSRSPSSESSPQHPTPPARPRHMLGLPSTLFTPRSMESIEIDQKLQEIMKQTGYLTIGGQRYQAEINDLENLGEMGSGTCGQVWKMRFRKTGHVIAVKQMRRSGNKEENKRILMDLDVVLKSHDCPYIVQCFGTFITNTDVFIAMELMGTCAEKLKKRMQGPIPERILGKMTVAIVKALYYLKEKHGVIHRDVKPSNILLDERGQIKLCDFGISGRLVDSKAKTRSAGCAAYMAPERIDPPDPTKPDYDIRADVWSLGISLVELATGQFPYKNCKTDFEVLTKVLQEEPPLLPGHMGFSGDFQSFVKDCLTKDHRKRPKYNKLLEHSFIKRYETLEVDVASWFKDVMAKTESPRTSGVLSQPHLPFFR
How it was run: (§1)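 Kinase, its appropriate substrate, and 10 μM ATP were combined with 1.0 μM compound. Phosphorylation was then allowed to proceed within the time-linear range and measured.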

[2] = target: T2, Flt3(h) (Homo sapiens, UniProt P36888)
T2 sequence (P36888 27-993): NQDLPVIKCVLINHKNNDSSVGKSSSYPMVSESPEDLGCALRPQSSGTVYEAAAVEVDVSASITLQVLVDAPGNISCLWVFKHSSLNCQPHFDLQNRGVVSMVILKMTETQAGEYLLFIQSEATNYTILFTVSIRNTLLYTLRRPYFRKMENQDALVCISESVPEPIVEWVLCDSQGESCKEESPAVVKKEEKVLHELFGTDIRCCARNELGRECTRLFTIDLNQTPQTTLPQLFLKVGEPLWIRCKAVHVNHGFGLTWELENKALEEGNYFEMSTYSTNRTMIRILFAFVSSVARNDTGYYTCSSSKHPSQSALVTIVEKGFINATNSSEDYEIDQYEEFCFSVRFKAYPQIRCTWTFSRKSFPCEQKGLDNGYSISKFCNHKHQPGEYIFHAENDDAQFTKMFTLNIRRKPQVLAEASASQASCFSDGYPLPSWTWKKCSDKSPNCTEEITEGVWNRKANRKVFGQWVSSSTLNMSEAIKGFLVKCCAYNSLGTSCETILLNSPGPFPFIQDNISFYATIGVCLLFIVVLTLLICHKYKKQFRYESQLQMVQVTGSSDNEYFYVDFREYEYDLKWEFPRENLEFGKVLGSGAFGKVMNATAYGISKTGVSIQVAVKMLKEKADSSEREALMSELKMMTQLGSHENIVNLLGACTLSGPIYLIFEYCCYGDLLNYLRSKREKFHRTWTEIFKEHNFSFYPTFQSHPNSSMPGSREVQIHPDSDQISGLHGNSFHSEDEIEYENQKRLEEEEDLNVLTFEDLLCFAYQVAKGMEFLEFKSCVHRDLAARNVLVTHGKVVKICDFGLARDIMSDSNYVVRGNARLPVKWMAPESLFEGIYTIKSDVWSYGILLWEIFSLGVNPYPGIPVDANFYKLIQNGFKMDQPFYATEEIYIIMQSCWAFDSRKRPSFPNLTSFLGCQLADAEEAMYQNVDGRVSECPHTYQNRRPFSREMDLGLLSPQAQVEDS
How it was run: as §1

[3] = target: JNK3(h) (Homo sapiens, UniProt P53779)
How it was run: as §1

[4] = target: Syk(h) (Homo sapiens, UniProt P43405)
How it was run: as §1

[5] = target: Blk(m) (Mus musculus, UniProt P16277)
How it was run: as §1

[6] = target: MAPK1(h) (Homo sapiens, UniProt P27361)
How it was run: as §1

[7] = target: PKBα(h) (Homo sapiens, UniProt P31749)
How it was run: as §1

[8] = target: Lyn(h) (Homo sapiens, UniProt P07948)
How it was run: as §1

[9] = target: Ros(h) (Homo sapiens, UniProt P08922)
How it was run: as §1

[10] = target: Fes(h) (Homo sapiens, UniProt P07332)
How it was run: as §1

[11] = target: cSRC(h) (Homo sapiens, UniProt P12931)
How it was run: as §1

[12] = target: T3, SAPK3(h) (Homo sapiens, UniProt P53778)
T3 sequence (P53778 1-367): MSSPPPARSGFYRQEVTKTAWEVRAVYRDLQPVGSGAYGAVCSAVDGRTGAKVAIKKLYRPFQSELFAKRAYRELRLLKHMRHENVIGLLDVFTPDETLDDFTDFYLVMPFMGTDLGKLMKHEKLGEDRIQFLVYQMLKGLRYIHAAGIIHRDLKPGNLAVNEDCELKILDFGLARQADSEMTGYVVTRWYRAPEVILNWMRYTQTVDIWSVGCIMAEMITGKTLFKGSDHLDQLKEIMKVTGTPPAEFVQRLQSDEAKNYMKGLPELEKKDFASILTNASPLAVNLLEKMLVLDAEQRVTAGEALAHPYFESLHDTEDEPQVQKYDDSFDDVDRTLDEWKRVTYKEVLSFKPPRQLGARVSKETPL
How it was run: as §1

[13] = target: JNK1α1(h) (Homo sapiens, UniProt P45983)
How it was run: as §1

[14] = target: EGFR(h) (Homo sapiens, UniProt P00533)
How it was run: as §1

Sequence of JNK3(h) (P53779 whole entry): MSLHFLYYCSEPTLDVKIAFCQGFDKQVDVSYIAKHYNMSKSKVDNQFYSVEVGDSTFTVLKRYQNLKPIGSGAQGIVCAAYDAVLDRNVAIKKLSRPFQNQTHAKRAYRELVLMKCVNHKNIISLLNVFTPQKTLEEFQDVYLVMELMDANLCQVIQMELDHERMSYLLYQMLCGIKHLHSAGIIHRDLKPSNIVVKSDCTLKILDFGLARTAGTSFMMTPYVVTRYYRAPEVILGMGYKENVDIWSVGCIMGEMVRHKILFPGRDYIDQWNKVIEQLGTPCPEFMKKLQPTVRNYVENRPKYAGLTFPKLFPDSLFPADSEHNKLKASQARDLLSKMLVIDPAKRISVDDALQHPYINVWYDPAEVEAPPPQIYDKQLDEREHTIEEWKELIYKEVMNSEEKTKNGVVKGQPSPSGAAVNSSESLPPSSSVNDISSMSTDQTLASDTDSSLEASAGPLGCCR
Sequence of Fes(h) (P07332 whole entry): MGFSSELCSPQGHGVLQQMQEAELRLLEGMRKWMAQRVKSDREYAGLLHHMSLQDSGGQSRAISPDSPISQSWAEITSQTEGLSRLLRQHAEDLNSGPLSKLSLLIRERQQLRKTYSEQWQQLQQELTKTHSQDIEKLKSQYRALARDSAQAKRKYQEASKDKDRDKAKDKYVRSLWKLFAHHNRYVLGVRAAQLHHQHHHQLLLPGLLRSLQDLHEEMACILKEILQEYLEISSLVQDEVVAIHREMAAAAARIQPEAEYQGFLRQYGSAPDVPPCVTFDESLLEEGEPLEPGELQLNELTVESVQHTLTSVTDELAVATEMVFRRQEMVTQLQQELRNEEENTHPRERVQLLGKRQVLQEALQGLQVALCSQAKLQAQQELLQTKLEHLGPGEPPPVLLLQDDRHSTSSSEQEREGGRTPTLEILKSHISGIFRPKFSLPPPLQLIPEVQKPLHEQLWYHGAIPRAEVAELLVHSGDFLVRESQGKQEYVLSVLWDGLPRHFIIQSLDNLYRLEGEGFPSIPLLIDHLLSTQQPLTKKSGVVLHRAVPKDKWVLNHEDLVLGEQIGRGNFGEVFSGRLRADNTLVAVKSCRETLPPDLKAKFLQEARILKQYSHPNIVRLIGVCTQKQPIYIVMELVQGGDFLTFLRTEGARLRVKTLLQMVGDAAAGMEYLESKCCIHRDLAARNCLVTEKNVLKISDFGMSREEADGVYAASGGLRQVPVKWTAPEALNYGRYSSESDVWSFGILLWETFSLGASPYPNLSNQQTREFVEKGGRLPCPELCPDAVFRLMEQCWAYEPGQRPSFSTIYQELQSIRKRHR
Sequence of MAPK1(h) (P27361 whole entry): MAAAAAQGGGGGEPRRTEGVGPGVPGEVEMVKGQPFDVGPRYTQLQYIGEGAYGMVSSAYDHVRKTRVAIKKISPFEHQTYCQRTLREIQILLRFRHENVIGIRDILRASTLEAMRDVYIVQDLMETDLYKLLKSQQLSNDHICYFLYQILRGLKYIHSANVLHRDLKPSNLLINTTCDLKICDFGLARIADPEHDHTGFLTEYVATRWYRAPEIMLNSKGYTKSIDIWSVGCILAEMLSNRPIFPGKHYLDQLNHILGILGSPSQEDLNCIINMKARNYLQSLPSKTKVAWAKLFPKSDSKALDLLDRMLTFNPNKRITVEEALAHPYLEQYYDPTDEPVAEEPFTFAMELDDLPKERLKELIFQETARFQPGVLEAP
Sequence of EGFR(h) (P00533 25-1210): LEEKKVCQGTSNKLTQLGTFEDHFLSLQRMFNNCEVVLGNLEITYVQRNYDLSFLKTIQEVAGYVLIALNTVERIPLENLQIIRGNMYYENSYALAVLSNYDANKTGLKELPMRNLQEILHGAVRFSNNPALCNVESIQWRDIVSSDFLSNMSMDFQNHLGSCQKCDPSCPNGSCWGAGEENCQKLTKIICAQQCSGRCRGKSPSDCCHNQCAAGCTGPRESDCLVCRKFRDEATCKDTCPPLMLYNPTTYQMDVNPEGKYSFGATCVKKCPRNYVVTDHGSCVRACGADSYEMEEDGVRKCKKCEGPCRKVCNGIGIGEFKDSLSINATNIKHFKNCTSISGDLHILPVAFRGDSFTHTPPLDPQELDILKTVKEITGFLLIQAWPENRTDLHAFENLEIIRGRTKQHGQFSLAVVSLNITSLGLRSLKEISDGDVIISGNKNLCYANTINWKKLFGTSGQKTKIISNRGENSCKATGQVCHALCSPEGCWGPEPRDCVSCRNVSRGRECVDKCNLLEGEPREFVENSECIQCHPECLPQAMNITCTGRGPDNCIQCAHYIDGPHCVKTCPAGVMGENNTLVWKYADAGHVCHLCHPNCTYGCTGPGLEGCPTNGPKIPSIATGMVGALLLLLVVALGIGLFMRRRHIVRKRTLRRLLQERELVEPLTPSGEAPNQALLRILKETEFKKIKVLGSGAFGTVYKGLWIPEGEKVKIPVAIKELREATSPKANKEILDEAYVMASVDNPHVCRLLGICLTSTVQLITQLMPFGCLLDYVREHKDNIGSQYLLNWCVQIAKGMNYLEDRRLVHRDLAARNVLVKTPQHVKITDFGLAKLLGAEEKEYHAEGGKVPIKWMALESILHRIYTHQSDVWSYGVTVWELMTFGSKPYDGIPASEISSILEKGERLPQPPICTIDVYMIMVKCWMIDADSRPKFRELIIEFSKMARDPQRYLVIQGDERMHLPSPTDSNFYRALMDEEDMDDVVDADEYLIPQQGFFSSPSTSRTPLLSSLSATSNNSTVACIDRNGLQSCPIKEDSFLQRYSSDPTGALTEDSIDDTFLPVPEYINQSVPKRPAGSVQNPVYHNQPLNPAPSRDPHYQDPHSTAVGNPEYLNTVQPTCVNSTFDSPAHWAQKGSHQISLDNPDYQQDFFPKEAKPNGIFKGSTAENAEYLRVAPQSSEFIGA
Sequence of JNK1α1(h) (P45983 1-384 isoform P45983-2): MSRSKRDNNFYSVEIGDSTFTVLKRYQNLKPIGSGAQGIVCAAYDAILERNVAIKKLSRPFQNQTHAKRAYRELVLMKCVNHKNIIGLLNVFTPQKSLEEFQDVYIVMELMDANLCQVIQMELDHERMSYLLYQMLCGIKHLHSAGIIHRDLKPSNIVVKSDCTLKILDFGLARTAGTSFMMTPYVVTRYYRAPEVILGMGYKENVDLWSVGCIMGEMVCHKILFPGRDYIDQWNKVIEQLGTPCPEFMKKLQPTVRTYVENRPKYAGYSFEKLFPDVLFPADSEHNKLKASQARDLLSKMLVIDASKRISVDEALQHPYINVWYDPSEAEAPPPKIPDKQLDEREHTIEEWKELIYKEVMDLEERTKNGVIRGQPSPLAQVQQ
Sequence of Blk(m) (P16277 whole entry): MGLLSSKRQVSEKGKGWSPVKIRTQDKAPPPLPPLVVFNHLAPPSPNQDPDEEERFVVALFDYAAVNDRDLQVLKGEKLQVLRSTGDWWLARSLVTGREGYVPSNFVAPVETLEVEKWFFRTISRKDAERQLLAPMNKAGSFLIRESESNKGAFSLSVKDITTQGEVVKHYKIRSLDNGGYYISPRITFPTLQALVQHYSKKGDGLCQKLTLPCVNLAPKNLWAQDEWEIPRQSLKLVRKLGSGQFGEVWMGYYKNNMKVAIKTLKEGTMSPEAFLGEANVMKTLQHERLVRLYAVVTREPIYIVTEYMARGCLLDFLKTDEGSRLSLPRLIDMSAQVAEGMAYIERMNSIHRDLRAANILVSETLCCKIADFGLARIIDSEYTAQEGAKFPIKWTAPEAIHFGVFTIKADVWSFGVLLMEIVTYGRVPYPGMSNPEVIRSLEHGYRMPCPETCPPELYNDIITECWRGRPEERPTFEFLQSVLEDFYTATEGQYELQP
Sequence of PKBα(h) (P31749 whole entry): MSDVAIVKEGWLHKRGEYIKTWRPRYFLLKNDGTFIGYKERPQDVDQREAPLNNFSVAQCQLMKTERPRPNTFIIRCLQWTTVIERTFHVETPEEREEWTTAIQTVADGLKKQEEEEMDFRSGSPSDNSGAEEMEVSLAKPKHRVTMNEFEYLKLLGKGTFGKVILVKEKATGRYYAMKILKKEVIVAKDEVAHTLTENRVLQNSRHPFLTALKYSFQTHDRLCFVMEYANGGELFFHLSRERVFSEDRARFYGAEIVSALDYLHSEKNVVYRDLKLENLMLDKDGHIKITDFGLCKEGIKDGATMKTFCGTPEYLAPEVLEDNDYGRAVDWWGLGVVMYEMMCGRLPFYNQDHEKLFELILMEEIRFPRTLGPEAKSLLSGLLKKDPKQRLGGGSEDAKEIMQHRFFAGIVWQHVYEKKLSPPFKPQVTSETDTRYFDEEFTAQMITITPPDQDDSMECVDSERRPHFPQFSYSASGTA
Sequence of cSRC(h) (P12931 whole entry): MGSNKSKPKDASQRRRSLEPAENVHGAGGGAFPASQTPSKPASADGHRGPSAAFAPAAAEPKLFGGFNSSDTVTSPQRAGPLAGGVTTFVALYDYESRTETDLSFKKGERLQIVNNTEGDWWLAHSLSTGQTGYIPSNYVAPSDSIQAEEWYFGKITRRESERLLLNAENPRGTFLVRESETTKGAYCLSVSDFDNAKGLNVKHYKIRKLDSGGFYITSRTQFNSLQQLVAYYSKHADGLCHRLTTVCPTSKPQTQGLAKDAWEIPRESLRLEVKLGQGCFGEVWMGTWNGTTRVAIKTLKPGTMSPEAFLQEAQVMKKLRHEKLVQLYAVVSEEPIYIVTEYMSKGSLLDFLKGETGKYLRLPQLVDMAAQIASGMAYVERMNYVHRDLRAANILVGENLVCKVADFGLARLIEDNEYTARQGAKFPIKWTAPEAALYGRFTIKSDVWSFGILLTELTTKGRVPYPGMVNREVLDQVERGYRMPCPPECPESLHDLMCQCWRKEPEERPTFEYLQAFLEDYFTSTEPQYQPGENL

| SMILES | Activity at Protein Kinase Assays (% of control), MKK7β(h) [1] | Activity at Protein Kinase Assays (% of control), Flt3(h) [2] | Activity at Protein Kinase Assays (% of control), JNK3(h) [3] | Activity at Protein Kinase Assays (% of control), Syk(h) [4] | Activity at Protein Kinase Assays (% of control), Blk(m) [5] | Activity at Protein Kinase Assays (% of control), MAPK1(h) [6] | Activity at Protein Kinase Assays (% of control), PKBα(h) [7] | Activity at Protein Kinase Assays (% of control), Lyn(h) [8] | Activity at Protein Kinase Assays (% of control), Ros(h) [9] | Activity at Protein Kinase Assays (% of control), Fes(h) [10] | Activity at Protein Kinase Assays (% of control), cSRC(h) [11] | Activity at Protein Kinase Assays (% of control), SAPK3(h) [12] | Activity at Protein Kinase Assays (% of control), JNK1α1(h) [13] | Activity at Protein Kinase Assays (% of control), EGFR(h) [14] |
| --- | --- | --- | --- | --- | --- | --- | --- | --- | --- | --- | --- | --- | --- | --- |
| CN(C)c1nc2ccc1CCCCn1cc(c3ccccc31)C1=C(C(=O)NC1=O)c1cn(c3ccccc13)CCC2 [Cpd 1, 31-(dimethylamino)-5,15,25,32-tetraazaheptacyclo[28.2.2.1^5,12.1^18,25.0^6,11.0^13,17.0^19,24]hexatriaconta-1(32),6,8,10,12(36),13(17),18(35),19,21,23,30,33-dodecaene-14,16-dione] | 88 % of control | 86 % of control | 96 % of control | 86 % of control | 109 % of control | 97 % of control | 94 % of control | 107 % of control | 79 % of control | 107 % of control | 81 % of control | 78 % of control | 102 % of control | 94 % of control |
| CN(C)c1cc2cc(n1)CCCn1cc(c3ccccc31)C1=C(C(=O)NC1=O)c1cn(c3ccccc13)CCC2 [Cpd 2, 20-(dimethylamino)-4,14,19,26-tetraazaheptacyclo[24.6.1.1^7,14.1^18,22.0^2,6.0^8,13.0^27,32]pentatriaconta-1(33),2(6),7(35),8,10,12,18(34),19,21,27,29,31-dodecaene-3,5-dione] | 78 % of control | 71 % of control | 107 % of control | 101 % of control | 70 % of control | 86 % of control | 114 % of control | 76 % of control | 108 % of control | 133 % of control | 105 % of control | 115 % of control | 105 % of control | 96 % of control |
| O=C1NC(=O)C2=C1c1cn(c3ccccc13)CCCc1cc(nc(N3CCCC3)c1)CCCn1cc2c2ccccc21 [Cpd 6, 20-pyrrolidin-1-yl-4,14,19,26-tetraazaheptacyclo[24.6.1.1^7,14.1^18,22.0^2,6.0^8,13.0^27,32]pentatriaconta-1(33),2(6),7(35),8,10,12,18(34),19,21,27,29,31-dodecaene-3,5-dione] | 97 % of control | 77 % of control | 103 % of control | 105 % of control | 74 % of control | 99 % of control | 112 % of control | 87 % of control | 117 % of control | 139 % of control | 97 % of control | 103 % of control | 108 % of control | 108 % of control |
| O=C1NC(=O)C2=C1c1cn(c3ccccc13)CCCc1ccc(c(N3CCCC3)n1)CCCn1cc2c2ccccc21 [Cpd 7, 31-pyrrolidin-1-yl-5,15,25,30-tetraazaheptacyclo[27.2.2.1^5,12.1^18,25.0^6,11.0^13,17.0^19,24]pentatriaconta-1(31),6,8,10,12(35),13(17),18(34),19,21,23,29,32-dodecaene-14,16-dione] | 85 % of control | 85 % of control | 102 % of control | 109 % of control | 91 % of control | 110 % of control | 106 % of control | 78 % of control | 105 % of control | 130 % of control | 113 % of control | 114 % of control | 104 % of control | 104 % of control |
